In PMC9320206, “Sanguinarine, identified as a natural alkaloid LSD1 inhibitor, suppresses lung cancer cell growth and migration” (Iranian Journal of Basic Medical Sciences, 2022) one finds IC50 data, which are given here for one molecule.

This experiment has as its target T1, Lysine-specific demethylase 1 (LSD1) (Homo sapiens, UniProt O60341).
T1 construct: gene KDM1A; recombinant LSD1 (pET-28b-LSD1, expressed in BL21(DE3))
In words: HRP/Amplex Red fluorescence demethylase assay with H3K4me2 peptide; no-enzyme counter-screen; […] dilution reversibility assay. The class given is biochemical. On the technique in general: Counterscreens check selectivity or assay interference.

SMILES strings stand for the structures.

In turn, `C[n+]1cc2c3c(ccc2c2ccc4cc5c(cc4c21)OCO5)OCO3` [sanguinarine] showed a 50% inhibitory concentration (IC50) of 400 nM.

Usually IC50 stands for the midpoint of a concentration-inhibition curve. Read a high IC50 as a need for much substance.
